Test results as given in the NIST ThermoML archive (doi:10.1021/je300997v).

Test: xn = mol fraction of the nth substance listed
Conditions: 101 kPa, Liquid; for viscosity: Capillary tube (Ostwald / Ubbelohde) method; for mass density: Pycnometric method; for electrical conductivity: conductivity meter

C[N+](C)(C)CCO.[Cl-] [choline chloride] + Oc1ccccc1
Conditions | electrical conductivity [S/m] | mass density [kg/m3] | viscosity [mPa·s]
293.2 K, x2 = 0.6667 | 0.14 | 1099.5 | 120.77
293.2 K, x2 = 0.75 | 0.238 | 1094.8 | 57.84
293.2 K, x2 = 0.8 | 0.275 | 1091.8 | 40.23
293.2 K, x2 = 0.8333 | 0.281 | 1089.8 | 31.96
293.2 K, x2 = 0.8571 | 0.273 | 1088.5 | 27.03
298.2 K, x2 = 0.6667 | 0.205 | 1096.7 | 90.33
298.2 K, x2 = 0.75 | 0.314 | 1092.1 | 44.64
298.2 K, x2 = 0.8 | 0.345 | 1089.3 | 31.55
298.2 K, x2 = 0.8333 | 0.347 | 1087 | 25.25
298.2 K, x2 = 0.8571 | 0.338 | 1085.2 | 21.43
303.2 K, x2 = 0.6667 | 0.265 | 1093 | 68.41
303.2 K, x2 = 0.75 | 0.388 | 1089 | 35.17
303.2 K, x2 = 0.8 | 0.421 | 1086 | 25.2
303.2 K, x2 = 0.8333 | 0.425 | 1083.8 | 19.75
303.2 K, x2 = 0.8571 | 0.409 | 1081.8 | 16.82
308.2 K, x2 = 0.6667 | 0.337 | 1090.1 | 53.43
308.2 K, x2 = 0.75 | 0.477 | 1085.8 | 28.22
308.2 K, x2 = 0.8 | 0.507 | 1081.9 | 20.25
308.2 K, x2 = 0.8333 | 0.508 | 1080.3 | 16.16
308.2 K, x2 = 0.8571 | 0.487 | 1078.2 | 13.76
313.2 K, x2 = 0.6667 | 0.416 | 1087.3 | 42.42
313.2 K, x2 = 0.75 | 0.576 | 1082.9 | 23.08
313.2 K, x2 = 0.8 | 0.602 | 1079.5 | 16.71
313.2 K, x2 = 0.8333 | 0.599 | 1076.1 | 13.44
313.2 K, x2 = 0.8571 | 0.574 | 1074.5 | 11.45
318.2 K, x2 = 0.6667 | 0.509 | 1084.3 | 34.34
318.2 K, x2 = 0.75 | 0.677 | 1079.5 | 19.14
318.2 K, x2 = 0.8 | 0.706 | 1076.3 | 14
318.2 K, x2 = 0.8333 | 0.696 | 1073.6 | 11.26
318.2 K, x2 = 0.8571 | 0.666 | 1071.7 | 9.46
